Assay results published in patent publication US20100286076A1, “ECTOPARASITICIDAL METHODS AND FORMULATIONS” (priority 2009, published 2010).

Tested on: Ctenocephalides felis
Assay: Pulse vs. single dose administration per os to dogs, flea infestation comb counts
Type: in vivo
Experimental: Pulse vs. Single dose administration per os to dogs/Ctenocephalides felis Another dog study was undertaken to evaluate the effect on flea infestation of 1) oral administration of a single point dose of 60 mg/kg; 2) oral administration of a pulsed dosing scheme of 20 mg/kg TID every 2 hours for one day; 3) oral administration of a pulsed dosing scheme of 20 mg/kg TID every 4 hours for one day; and 4) post-treatment plasma concentration of spinetoram.
Four treatment groups of 8 dogs each (4 male: 4 female) were dosed spinetoram as follows:
Treatment Group 1: 60 mg/kg, single dose
Treatment Group 2: 60 mg/kg, (20 mg/kg every 2 hours, three times)
Treatment Group 3: 60 mg/kg, (20 mg/kg every 4 hours, three times)
Treatment Group 4: 0 mg/kg, (negative control)
The dogs were housed individually in concrete-floored chain-link kennels both inside and outside. During the study period the dogs were fed a dry dog chow, except for two days prior to and the day of treatment (day 0) when they received wet canned food. The dogs had ad libitum access to water.
The treated dogs received one or more gelatin capsules containing technical active spinetoram powder by mouth, with treatment group 4 receiving placebo. Each dog was experimentally infested with about 100 fleas on test days—1,5,12,19, 28, 35, 42, 49, and 56. Knockdown assessments were conducted 24 hours after dosing, with residual efficacy evaluated subsequently at 48 hours after each subsequent infestation. The day 1 comb count served to determine the initial/knockdown efficacy, approximately 24 hours after the 60 mg/kg dose, or the first of the pulse dose. Blood samples were drawn to determine concentration of spinetoram in plasma.

Spinetoram was tested, and the “geometric mean percent reduction in live adult flea counts compared to the untreated control group” value (“geometric mean percent reduction” for short) (oral 20 mg/kg TID@4 h, Day 30) was “(99.8) percent”, the “geometric mean live adult flea count” value (oral 20 mg/kg TID@4 h, Day 37) was 0.0 and the “geometric mean percent reduction” value (oral 20 mg/kg TID@4 h, Day 37) was “(100) percent”. The “geometric mean live adult flea count” value (oral 20 mg/kg TID@4 h, Day 44) was 0.0, the “geometric mean percent reduction” value (oral 20 mg/kg TID@4 h, Day 44) was “(100) percent” and the “geometric mean live adult flea count” value (oral 20 mg/kg TID@4 h, Day 51) was 0.2. The “geometric mean percent reduction” value (oral 20 mg/kg TID@4 h, Day 51) was “(99.7) percent”, the “geometric mean live adult flea count” value (oral 20 mg/kg TID@4 h, Day 58) was 0.0 and the “geometric mean percent reduction” value (oral 20 mg/kg TID@4 h, Day 58) was “(100) percent”. For the same substance, the “geometric mean live adult flea count” value (oral 20 mg/kg TID@4 h, Day 72) was 0.2, the “geometric mean percent reduction” value (oral 20 mg/kg TID@4 h, Day 72) was “(99.8) percent” and the “geometric mean live adult flea count” value (oral 20 mg/kg TID@4 h, Day 86) was 4.7. For the same substance, the “geometric mean percent reduction” value (oral 20 mg/kg TID@4 h, Day 86) was “(93.8) percent”, the “geometric mean live adult flea count” value (oral 20 mg/kg TID@4 h, Day 93) was 4.8 and the “geometric mean percent reduction” value (oral 20 mg/kg TID@4 h, Day 93) was “(93.7) percent”. For the same substance, the “geometric mean live adult flea count” value (oral 20 mg/kg TID@4 h, Day 100) was 11.4, the “geometric mean percent reduction” value (oral 20 mg/kg TID@4 h, Day 100) was “(86.3) percent” and the “geometric mean live adult flea count” value (oral 20 mg/kg TID@4 h, Day 107) was 8.5. For the same substance, the “geometric mean percent reduction” value (oral 20 mg/kg TID@4 h, Day 107) was “(89.6) percent”, the “geometric mean live adult flea count” value (oral 60 mg/kg SID, Day 1) was 0.0 and the “geometric mean percent reduction” value (oral 60 mg/kg SID, Day 1) was “(100) percent”. For the same substance, the “geometric mean live adult flea count” value (oral 60 mg/kg SID, Day 7) was 0.0, the “geometric mean percent reduction” value (oral 60 mg/kg SID, Day 7) was “(100) percent” and the “geometric mean live adult flea count” value (oral 60 mg/kg SID, Day 14) was 0.0. For the same substance, the “geometric mean percent reduction” value (oral 60 mg/kg SID, Day 14) was 100) percent, the “geometric mean live adult flea count” value (oral 60 mg/kg SID, Day 21) was 0.0 and the “geometric mean percent reduction” value (oral 60 mg/kg SID, Day 21) was “(100) percent”. The “geometric mean live adult flea count” value (oral 60 mg/kg SID, Day 30) was 0.0, the “geometric mean percent reduction” value (oral 60 mg/kg SID, Day 30) was “(100) percent” and the “geometric mean live adult flea count” value (oral 60 mg/kg SID, Day 37) was 0.0. The “geometric mean percent reduction” value (oral 60 mg/kg SID, Day 37) was “(100) percent”, the “geometric mean live adult flea count” value (oral 60 mg/kg SID, Day 44) was 0.0 and the “geometric mean percent reduction” value (oral 60 mg/kg SID, Day 44) was “(100) percent”. The “geometric mean live adult flea count” value (oral 60 mg/kg SID, Day 51) was 0.0, the “geometric mean percent reduction” value (oral 60 mg/kg SID, Day 51) was “(100) percent” and the “geometric mean live adult flea count” value (oral 60 mg/kg SID, Day 58) was 0.2. The “geometric mean percent reduction” value (oral 60 mg/kg SID, Day 58) was “(99.8) percent”, the “geometric mean live adult flea count” value (oral 60 mg/kg SID, Day 72) was 0.0 and the “geometric mean percent reduction” value (oral 60 mg/kg SID, Day 72) was “(100) percent”. The “geometric mean live adult flea count” value (oral 60 mg/kg SID, Day 86) was 1.8, the “geometric mean percent reduction” value (oral 60 mg/kg SID, Day 86) was “(97.7) percent” and the “geometric mean live adult flea count” value (oral 60 mg/kg SID, Day 93) was 1.9. For the same substance, the “geometric mean percent reduction” value (oral 60 mg/kg SID, Day 93) was “(97.5) percent”, the “geometric mean live adult flea count” value (oral 60 mg/kg SID, Day 100) was 5.2 and the “geometric mean percent reduction” value (oral 60 mg/kg SID, Day 100) was “(93.7) percent”. The “geometric mean live adult flea count” value (oral 60 mg/kg SID, Day 107) was 3.2 and the “geometric mean percent reduction” value (oral 60 mg/kg SID, Day 107) was “(96.2) percent”.
